Experimental data published in PMC6958422 (Pharmaceuticals, 2019).
Read-outs that look alike come from different tables or passages of the source.

How the values were obtained:
[1] = biological target: T1, hA2B AR (Homo sapiens, UniProt P29275); assay: cAMP assay, stimulation of cAMP production in hA2B CHO cells (agonism); assay type: cell-based; details: for Emax at 1 µM: CHO, compound at 1µM, in comparison with NECA (1µM = 100%), read-out: Efficacy hA2B (cAMP assays) (converted); for EC50: hA2B CHO cells, means ± SEM of four assays
T1 construct: expressed in transfected cells; host or cells: CHO cells
T1 sequence (P29275 1-332): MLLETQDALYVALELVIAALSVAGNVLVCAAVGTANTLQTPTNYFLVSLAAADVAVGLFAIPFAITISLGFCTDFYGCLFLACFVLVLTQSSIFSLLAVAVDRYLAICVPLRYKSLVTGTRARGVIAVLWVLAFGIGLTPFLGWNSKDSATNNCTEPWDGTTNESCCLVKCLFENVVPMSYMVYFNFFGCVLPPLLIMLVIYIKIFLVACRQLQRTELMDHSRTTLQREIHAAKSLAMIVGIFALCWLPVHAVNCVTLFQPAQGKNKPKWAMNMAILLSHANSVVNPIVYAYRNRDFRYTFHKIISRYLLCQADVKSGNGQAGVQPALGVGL
Protocol: (§1) The amino-3,5-dicyanopyridines 1–20 were tested for their affinity at hA1, hA2A, and hA3 ARs, stably transfected in Chinese Hamster Ovary (CHO) cells, and were also studied as hA2B agonists by evaluating their stimulatory effect on cAMP production in CHO cells, stably expressing the hA2B AR.
(§2) CHO cells transfected with hA1, hA2A, hA2B, and hA3 ARs were grown adherently and maintained in Dulbecco’s modified Eagle’s medium (Sigma-Aldrich, Milan, Italy) with nutrient mixture F12, containing 10% fetal calf serum, penicillin (100 U/mL), streptomycin (100 μg/mL), l-glutamine (2 mM) and geneticin (G418; 0.2 mg/mL) at 37°C in 5% CO2/95% air until the use in cAMP assays. For membrane preparation, the culture medium was removed, and the cells were washed with phosphate-buffered saline and scraped off T75 flasks in ice-cold hypotonic buffer (5 mM Tris HCl, 1 mM EDTA, pH 7.4). The cell suspension was homogenized with a Polytron, centrifuged for 30 min at 40000 g at 4°C, and the resulting membrane pellet was used for competition binding experiments.
CHO cells transfected with hAR subtypes were washed with phosphate-buffered saline, detached with trypsin and centrifuged for 10 min at 200 g. Cells were seeded in 96-well white half-area microplate (Perkin Elmer, Boston, USA) in a stimulation buffer composed of Hank Balanced Salt Solution (Sigma-Aldrich, Milan, Italy), 5 mM HEPES, 0.5 mM Ro 20-1724, and 0.1% BSA. cAMP levels were then quantified by using the AlphaScreen cAMP Detection Kit (Perkin Elmer) following the manufacturer’s instructions. At the end of the experiments, plates were read with the Perkin Elmer EnSight Multimode Plate Reader.

[2] = biological target: T2, hA1 AR (Homo sapiens, UniProt P30542); assay: [3H]DPCPX competition binding to hA1 CHO cell membranes
T2 construct: expressed in transfected cells; host or cells: CHO cells
T2 sequence (P30542 1-326): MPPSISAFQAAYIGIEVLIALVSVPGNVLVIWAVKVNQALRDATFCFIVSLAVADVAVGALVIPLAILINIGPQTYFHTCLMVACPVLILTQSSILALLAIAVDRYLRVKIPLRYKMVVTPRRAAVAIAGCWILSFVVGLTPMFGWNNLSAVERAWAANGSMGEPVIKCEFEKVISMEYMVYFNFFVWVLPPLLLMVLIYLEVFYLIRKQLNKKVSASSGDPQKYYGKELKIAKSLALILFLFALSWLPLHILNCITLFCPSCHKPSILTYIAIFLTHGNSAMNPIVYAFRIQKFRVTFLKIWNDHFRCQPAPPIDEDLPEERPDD
Protocol: as §2
(§3) All synthesized compounds have been tested for their affinity to hA1, hA2A, and hA3 ARs. Competition experiments to hA1 ARs were carried out incubating 1 nM [^3H]-8-cyclopentyl-1,3-dipropylxanthine ([^3H]-DPCPX) with membrane suspension (50 μg of protein/100 μL) and different concentrations of the examined compounds at 25°C for 90 min in 50 mM Tris HCl, pH 7.4. […] Inhibition experiments to hA2A ARs were performed incubating the radioligand [^3H]-ZM241385 (4-(2-[7-Amino-2-(2-furyl)[1,2,4]triazolo[2,3-a][1,3,5]triazin-5-ylamino]ethyl)phenol) (1 nM) with the membrane suspension (50 μg of protein/100 μL) and different concentrations of the examined compounds for 60 min at 4°C in 50 mM Tris HCl (pH 7.4), 10 mM MgCl2. Non-specific binding was determined in the presence of ZM241385 (1 μM) and was about 20% of the total binding. Competition binding experiments to A3 ARs were carried out incubating the membrane suspension (50 μg of protein/100 μL) with 0.5 nM [^125I]-N^6-(4-aminobenzyl)-N-methylcarboxamidoadenosine ([^125I]-ABMECA) in the presence of different concentration of the examined compounds for an incubation time of 120 min at 4°C in 50 mM Tris HCl (pH 7.4), 10 mM MgCl2, and 1 mM EDTA. Non-specific binding was defined as binding in the presence of 1μM ABMECA and was always < 10% of the total binding. Bound and free radioactivity were separated by filtering the assay mixture through Whatman GF/B glass fiber filters using a Brandel cell harvester (Brandel Instruments, Unterföhring, Germany). The filter bound radioactivity was counted by Packard Tri Carb 2810 TR scintillation counter (Perkin Elmer, Boston, MA, USA).
(§4) The protein concentration was determined according to a Bio-Rad method with bovine albumin as a standard reference. Inhibitory binding constant (Ki) values were calculated from those of IC50 according to Cheng & Prusoff equation Ki = IC50/(1+[C*]/KD*), where [C*] is the concentration of the radioligand and KD* its dissociation constant. Ki and IC50 values were calculated by non-linear regression analysis using the equation for a sigmoid concentration-response curve (Graph-PAD Prism, San Diego, CA, USA).

[3] = biological target: T3, hA2A AR (Homo sapiens, UniProt P29274); assay: [3H]ZM241385 competition binding to hA2A CHO cell membranes; details: for I% hA2A: percentage of inhibition at 1µM, [3H]ZM241385; for Ki: [3H]ZM241385, hA2A CHO cells, means ± SEM
T3 construct: expressed in transfected cells; host or cells: CHO cells
T3 sequence (P29274 whole entry): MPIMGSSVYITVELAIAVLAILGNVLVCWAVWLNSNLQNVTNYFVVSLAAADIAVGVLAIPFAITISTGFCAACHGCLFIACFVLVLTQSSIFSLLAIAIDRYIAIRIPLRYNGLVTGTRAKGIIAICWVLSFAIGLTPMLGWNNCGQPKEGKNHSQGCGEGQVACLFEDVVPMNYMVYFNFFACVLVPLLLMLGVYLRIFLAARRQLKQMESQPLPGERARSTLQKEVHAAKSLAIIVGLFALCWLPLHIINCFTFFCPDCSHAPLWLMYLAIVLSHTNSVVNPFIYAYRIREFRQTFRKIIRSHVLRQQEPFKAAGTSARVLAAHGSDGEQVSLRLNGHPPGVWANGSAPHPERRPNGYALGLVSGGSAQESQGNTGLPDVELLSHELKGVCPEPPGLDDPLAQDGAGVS
Protocol: as §2, §3, §4

[4] = biological target: T4, hA3 AR (Homo sapiens, UniProt P0DMS8); assay: [125I]AB-MECA competition binding to hA3 CHO cell membranes; details: for inhibition at 1 µM: percentage of inhibition at 1µM; for Ki: hA3 CHO cells, means ± SEM
T4 construct: expressed in transfected cells; host or cells: CHO cells
T4 sequence (P0DMS8 1-318): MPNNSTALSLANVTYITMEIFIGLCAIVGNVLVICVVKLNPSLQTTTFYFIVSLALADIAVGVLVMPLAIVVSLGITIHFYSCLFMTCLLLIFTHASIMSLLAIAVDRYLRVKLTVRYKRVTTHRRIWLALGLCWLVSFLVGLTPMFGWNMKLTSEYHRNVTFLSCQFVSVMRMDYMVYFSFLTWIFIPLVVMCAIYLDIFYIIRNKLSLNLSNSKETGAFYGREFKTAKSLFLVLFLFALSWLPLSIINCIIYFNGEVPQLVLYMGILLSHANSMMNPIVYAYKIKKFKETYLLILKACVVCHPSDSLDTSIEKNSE
Protocol: as §2, §3, §4

[5] = biological target: T2, hA1 AR; assay: Modulation of Forskolin-stimulated cAMP levels in hA1 CHO cells; assay type: cell-based; details: Forskolin 5 µM; for EC50: means ± SEM of four experiments, read-out: EC50 (potency to increase Forskolin-stimulated cAMP levels, hA1 CHO cells); for Efficacy (modulation of Forskolin-stimulated cAMP, hA1 CHO cells): normalized to DPCPX (set at 100%)
Protocol: as §1
For membrane preparation, the culture medium was removed, and the cells were washed with phosphate-buffered saline and scraped off T75 flasks in ice-cold hypotonic buffer (5 mM Tris HCl, 1 mM EDTA, pH 7.4). The cell suspension was homogenized with a Polytron, centrifuged for 30 min at 40000 g at 4°C, and the resulting membrane pellet was used for competition binding experiments.
CHO cells transfected with hAR subtypes were washed with phosphate-buffered saline, detached with trypsin and centrifuged for 10 min at 200 g. […] At the end of the experiments, plates were read with the Perkin Elmer EnSight Multimode Plate Reader.

[6] = biological target: T1, hA2B AR; details: cited from earlier work
[7] = system: A2BAR; design: method as in PMID 31132418; details: rat CA1 hippocampus, cited from earlier work
[8] = at 1µM, in comparison with NECA (1µM = 100%)

| SMILES | Emax at 1 µM [1] [%] | EC50 [1] [nM] | Ki [2] [nM] | I% hA2A [3] [%] | inhibition at 1 µM [4] [%] | EC50 [5] [nM] | Efficacy (modulation of Forskolin-stimulated cAMP, hA1 CHO cells) [5] [%] | melting point | other results |
| --- | --- | --- | --- | --- | --- | --- | --- | --- | --- |
| C=CCOc1ccc(-c2c(C#N)c(N)nc(SCc3ncc[nH]3)c2C#N)cc1 [Compound 3, 2-Amino-6-[(1H-imidazol-2-ylmethyl)sulfanyl]-4-[4-(prop-2-en-1-yloxy)phenyl]pyridine-3,5-dicarbonitrile] | 56 | 27 ± 3 | 16 ± 2 | 17 | 8 | 19.6 ± 1.7 | 39 ± 4 | – | – |
| CCOc1ccc(-c2c(C#N)c(N)nc(SCc3ncc[nH]3)c2C#N)cc1 [Compound 5, 2-(((1H-Imidazol-2-yl)methyl)thio)-6-amino-4-(4-ethoxyphenyl)pyridine-3,5-dicarbonitrile] | – | – | – | – | – | – | – | – | Efficacy hA2B (cAMP assays) [6, 8]: 62% |
| N#Cc1c(N)nc(SCc2ncc[nH]2)c(C#N)c1-c1ccc(F)cc1 [Compound 8, 2-Amino-4-(4-fluorophenyl)-6-[(1H-imidazol-2-ylmethyl)sulfanyl]pyridine-3,5-dicarbonitrile] | 76 | 18 ± 2 | 0.78 ± 0.08 | – | – | 1.34 ± 0.11 | 34 ± 3 | 223 to 225 °C (dec.) | Ki [3]: 139 ± 12 nM; Ki [4]: 410 ± 38 nM |
| CSc1ccc(-c2c(C#N)c(N)nc(SCc3ncc[nH]3)c2C#N)cc1 [Compound 11, 2-Amino-6-[(1H-imidazol-2-ylmethyl)sulfanyl]-4-[4-(methylsulfanyl)phenyl]pyridine-3,5-dicarbonitrile] | 30 | 36 ± 3 | 8.32 ± 0.78 | – | – | 8.87 ± 0.64 | 52 ± 4 | 257 to 259 °C (dec.) | Ki [3]: 227 ± 21 nM; Ki [4]: 388 ± 29 nM |
| COc1ccc(-c2c(C#N)c(N)nc(NCCO)c2C#N)cc1 [Compound 19, 2-Amino-6-[(2-hydroxyethyl)amino]-4-(4-methoxyphenyl)pyridine-3,5-dicarbonitrile] | 1 | > 1000 | – | 2 | 15 | – | – | 248 to 250 °C | I% hA1 ([2]; percentage of inhibition at 1µM, [3H]DPCPX): 14% |
| COC(=O)CSc1nc(N)c(C#N)c(-c2ccc(OC)cc2)c1C#N [Compound 20, Methyl{[6-amino-3,5-dicyano-4-(4-methoxyphenyl)pyridin-2-yl]sulfanyl}acetate] | 1 | > 1000 | 987 ± 81 | 1 | 5 | – | – | 218 to 220 °C | – |
| N#Cc1c(N)nc(SCc2ncc[nH]2)c(C#N)c1-c1ccc(OCC2CC2)cc1 [Compound P453, 2-{[(1H-imidazol-2-yl)methyl]thio}-6-amino-4-[4-(cyclopropylmethoxy)phenyl]pyridine-3,5-dicarbonitrile] | – | – | – | – | – | – | – | – | Efficacy hA2B (cAMP assays) [6, 8]: 70%; Effect on PPF (paired pulse facilitation) [7]: decreases PPF; Effect on A1AR-mediated fEPSP inhibition during OGD ([7]; two-minute oxygen and glucose deprivation insult): delays A1AR-mediated fEPSP inhibition |
| CCCn1c(=O)c2[nH]c(C3CCCC3)nc2n(CCC)c1=O [DPCPX, 8-Cyclopentyl-1,3-dipropylxanthine, reference compound] | – | – | – | – | – | – | 100 ± 9 | – | – |
| N#Cc1c(N)nc(SCc2ncc[nH]2)c(C#N)c1-c1ccccc1 [LUF5833, 2-amino-6-[(1H-imidazol-2-ylmethyl)sulfanyl]-4-phenylpyridine-3,5-dicarbonitrile] | – | – | – | – | – | – | – | – | Efficacy hA2B (cAMP assays) ([6]; in comparison with NECA): 81% |
